The subject of data set [1] is male ddy mice. The data set is described as follows: Lipolytic effect in mice (serum free fatty acid). The class given is in vivo. As to the method: Blood Sugar Decreasing Effect and Lipolytic Effect Male ddy mice (supplied from the firm Nippon Charles Liver) of 6 weeks age were subcutaneously administered with glucose in a dose of 2 g/kg. The animals were also treated with either one of test compounds via oral or intraperitoneal administration in a dose of 0.1 ml per 10 grams of body weight. After one hour, blood sample was taken from abdominal aorta, from which serum was separated and served as the sample. Lipolytic Effect Amount of free fatty acid in the samples was determined using NEFA HA TEST WAKO (of the firm Wako Pure Chemical). […] Therefore, it was shown that they are useful as medicament for preventive and therapeutic treatment of hyperlipemia and for therapeutic treatment of obesity.

Another data set relates to canine adipocytes. The data set is described as follows: Lipolytic activity in canine fatty cell (glycerol release). The class given is cell-based, dogs. To be noted: Canis lupus familiaris, Adipocyte; for EC50: 1 h, glycerol release, canine adipocytes, read-out: ED50 (the source's name); for Emax: read-out: Intrinsic activity (%). As for the experimental part:
Lipolytic Activity in Canine Fatty Cell
Adipose tissues in the omentum were collected from dogs and minced and washed. Krebs-Ringer buffer solution containing 1 mg/ml Collagenase (Sigma) and 1% of bovine serum albumin was added in an amount of 3 ml per one gram of the tissue. These cells were then incubated at 37° C. for 30 minutes with shaking and then undigested tissues were removed with a nylon filter. The resulting adipocytes were washed four times with Krebs-Ringer buffer, and then the concentration of cells was diluted to 2×10^5/ml with Krebs-Ringer buffer solution containing 4% of bovine serum albumin. These cells were transferred to Eppendorf tubes each in an amount of 300 μl.
Each 300 μl of a culture medium containing the test compounds were added to these tubes and was held at 37° C. for 1 hour whith shaking. Stimulation was stoped by cooling with ice. After centrifugation, the adipocytes were taken off with an aspirator, whereupon the glycerol was determined using F-KIT GLTCEROL (Behringer-Manheim).

In another data set the target is T1, human β3 (Homo sapiens, UniProt P13945).
T1 construct: And then full length of human β3 gene was cloned using this fragment as a probe; expressed in transfected cells; host or cells: CHO cells (Chinese hamster ovary), pcDNA3 vector
T1 sequence (P13945 whole entry, the tested form may be a part): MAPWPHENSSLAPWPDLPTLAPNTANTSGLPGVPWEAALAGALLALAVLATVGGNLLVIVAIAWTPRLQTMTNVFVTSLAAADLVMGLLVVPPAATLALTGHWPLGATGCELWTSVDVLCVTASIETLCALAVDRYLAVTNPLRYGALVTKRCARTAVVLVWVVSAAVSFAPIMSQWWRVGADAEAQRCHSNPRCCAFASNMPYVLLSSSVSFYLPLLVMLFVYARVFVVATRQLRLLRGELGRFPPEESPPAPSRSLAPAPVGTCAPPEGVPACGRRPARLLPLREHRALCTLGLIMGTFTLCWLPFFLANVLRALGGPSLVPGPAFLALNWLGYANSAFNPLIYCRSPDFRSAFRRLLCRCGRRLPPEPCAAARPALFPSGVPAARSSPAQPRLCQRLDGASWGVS
The data set is described as follows: Human β3-agonist activity (cAMP in CHO cells transfected with human β3 gene). The class given is cell-based. To be noted: for Emax: CHO, read-out: Intrinsic activity (%).

Data set [2] deals with male ddy mice. The data set is described as follows: Blood sugar decreasing effect in glucose-loaded mice. The format is in vivo. To be noted: glucose 2 g/kg s.c., after one hour. As to the method: Blood Sugar Decreasing Effect and Lipolytic Effect Male ddy mice (supplied from the firm Nippon Charles Liver) of 6 weeks age were subcutaneously administered with glucose in a dose of 2 g/kg. The animals were also treated with either one of test compounds via oral or intraperitoneal administration in a dose of 0.1 ml per 10 grams of body weight. After one hour, blood sample was taken from abdominal aorta, from which serum was separated and served as the sample. Blood Sugar Decreasing Effect The samples prepared as above were analyzed for the serum glucose concentration by Auto analyzer (SUPER Z of the firm M. C. Medical). For the analyzer kit, Glucose II HA TEST WAKO (of the firm Wako Pure Chemical) was used. % decrease in blood sugar=[(A−B)/(A−C)]×100 in which A represents the glucose concentration upon being loaded with glucose, B represents the glucose concentration after administration of the compound and C is the usual level of the glucose concentration. […] Therefore, it was proven that the compound according to the present invention is effective as a medicament for therapeutic and preventive treatment of diabetes.

Data set [3] deals with male ddy mice. The data set is described as follows: Toxicity test in mice. The format is in vivo. To be noted: dose of 100 mg/kg; 8 mice. As for the experimental part:
The compounds of Examples 7 and 31 were administered to 6 week age male ddy mice (supplied from the firm Nippon Charles Liver) at a dose of 100 mg/kg.

Molecules are shown by their SMILES. Where a name gives a salt, the structure may show the parent alone. Read-outs that look alike come from different tables or passages of the source.

On to `CS(=O)(=O)Nc1cc(C(O)CNCCOc2ccc3c(c2)[nH]c2ccccc23)ccc1O.Cl` (racemic) [Example 2, (±)-N-[5-[2-[2-(9H-Carbazol-2-yloxy)ethylamino]-1-hydroxyethyl]-2-hydroxyphenyl]methanesulfonamide Hydrochloride], for which, in the data set on male ddy mice [1] (intraperitoneal administration of 10 mg/kg), the “increase of free fatty acid” value was determined as 67.2%. Moreover, in the data set with canine adipocytes, the EC50 came to 56 nM and the Emax was 82%. On human β3, the EC50 is 0.18 nM and the Emax worked out at 120%. In the data set with male ddy mice [2] (intraperitoneal administration), the “% decrease in blood sugar” value was determined as 77.1%.
For `CS(=O)(=O)Nc1cccc(C(O)CNCCOc2ccc3c(c2)[nH]c2ccccc23)c1.Cl` (racemic) [Example 7, (±)-N-[3-[2-[2-(9H-Carbazol-2-yloxy)ethylamino]-1-hydroxyethyl]phenyl]methanesulfonamide Hydrochloride], in the data set on male ddy mice [1] (oral administration of 100 mg/kg), the “increase of free fatty acid” value is 47.7%. In the data set on canine adipocytes, the EC50 was 1200 nM and the Emax stood at 90%. On human β3, the EC50 turned out to be 18 nM and the Emax came to 95%. The fatal cases result in the data set with male ddy mice [3] is “no fatal case”.
Consider `OC(CNCCOc1ccc2c(c1)[nH]c1ccccc12)c1ccccc1` (racemic) [Example 31, (±)-2-N-[2-(9H-Carbazol-2-yloxy)ethyl]amino]-1-phenyethanol Hydrochloride], for which the “increase of free fatty acid” value with male ddy mice [1] (oral administration of 30 mg/kg) was 32.4%. Moreover, the EC50 is 7700 nM with canine adipocytes and 2200 nM at human β3 (cAMP, CHO cells with human β3, read-out: ED50 (the source's name)). Besides, the values for the Emax in the data set on canine adipocytes and at human β3 were 103% and 100%, respectively. In the data set with male ddy mice [2] (oral administration), the “% decrease in blood sugar” value came to 34.5%. Besides, the fatal cases result in the data set on male ddy mice [3] is recorded as “no fatal case”.

These data come from patent US6545053B1, “Tricyclic compounds and drug compositions containing same” (Asahi Kasei Kogyo Kabushiki Kaisha, priority 1996, dated 2003).
